This note sets out measurements from ChEMBL document CHEMBL1143244, “Conformational studies of 3-amino-1-alkyl-cyclopentane carboxamide CCR2 antagonists leading to new spirocyclic antagonists” (Bioorg Med Chem Lett, 2008).

The target in assay [1] is T1, C-C chemokine receptor type 2 (Homo sapiens, UniProt P41597). The experiment in a line: Displacement of [125I]MCP1 from human CCR2 expressed in human monocytes at 1 uM. The class given is cell-based. For orientation: Loss of bound radioactivity is the signal in a displacement assay; it reports binding, not function.
Target sequence in this assay (P41597 whole entry, looked up): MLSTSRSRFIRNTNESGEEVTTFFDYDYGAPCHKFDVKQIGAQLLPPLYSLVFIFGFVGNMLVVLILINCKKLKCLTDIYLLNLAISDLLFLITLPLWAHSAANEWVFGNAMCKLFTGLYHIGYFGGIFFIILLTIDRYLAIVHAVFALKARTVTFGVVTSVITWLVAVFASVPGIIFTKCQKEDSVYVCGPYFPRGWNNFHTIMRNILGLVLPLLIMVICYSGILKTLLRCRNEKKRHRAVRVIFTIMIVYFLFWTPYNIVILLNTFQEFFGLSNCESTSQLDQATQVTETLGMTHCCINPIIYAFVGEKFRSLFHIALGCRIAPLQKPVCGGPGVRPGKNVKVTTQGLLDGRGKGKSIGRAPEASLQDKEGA
For assay [2], the target named is T1, C-C chemokine receptor type 2. The experiment in a line: Displacement of [125I]MCP1 from human CCR2 expressed in human monocytes. In kind it is cell-based.
Target sequence in this assay (P41597 whole entry): as the sequence (P41597 whole entry, looked up) above

For orientation: inhibition means how much of the control response was suppressed. `C[C@H]1CN([C@@H]2CCC3(CCN(Cc4cc(F)cc(C(F)(F)F)c4)C3=O)C2)CC[C@@]12C=Cc1ccccc12` (some centres undefined) showed an inhibition in assay [1] of 18%. The IC50 is the concentration at which inhibition is half-maximal. The low end stands for inhibition by little substance, the high end for a need for much substance. For `C[C@H]1CN([C@@H]2CC[C@@]3(CCO[C@H]3OCc3cc(F)cc(C(F)(F)F)c3)C2)CC[C@@]12C=Cc1ccccc12`, in assay [2], the IC50 was determined as 4.6 nM. The same measure, in the same setting: the value for `C[C@H]1CN([C@@H]2CC[C@@]3(CCO[C@@H]3OCc3cc(F)cc(C(F)(F)F)c3)C2)CC[C@@]12C=Cc1ccccc12` was 115 nM; that for `CC(C)[C@]1(C(=O)NCc2cc(F)cc(C(F)(F)F)c2)CC[C@@H](N2CC[C@@]3(C=Cc4ccccc43)[C@@H](C)C2)C1` was 1.4 nM.
